Measured values as given in patent US20230226065A1, “ANTI-INFLAMMATORY COMPOSITIONS, METHODS AND USES THEREOF” (COMVITA LIMITED, priority 2020, published 2023).

Assays:
recombinant MMP-9 enzyme = target: T1, recombinant MMP-9 enzyme (Homo sapiens, UniProt P14780); assay: MMP-9 inhibitor screening assay (fluorometric); format: biochemical; conditions: 40 μg/ml; no significant difference to NNGH control
T1 construct: purchased Abcam ab139449
Method: The MMP-9 inhibitor screening assay (fluorometric) kits were purchased from Abcam (Melbourne, Australia). The fluorometric kit contains the recombinant MMP-9 enzyme, MMP inhibitor NNGH (N-isobutyl-N-[4-methoxyphenylsulfonyl]glycyl hydroxamic acid), MMP fluorogenic substrate solubilised in DMSO, the fluorometric assay buffer and 96-well clear microplate.
Inhibitory activity on MMP-9 was assessed using the commercial MMP-9 inhibitor screening assay kit. MMP-9 activity was expressed as a change in fluorescence intensity measured using SpectraMax iD3 multi-mode microplate reader (Molecular Devices, San Jose, USA).
The assay employs a FRET-tagged (fluorescence resonance energy transfer) substrate, which can be hydrolysed by MMP-9 at a specific site (Abcam, 2018). The cleavage of the FRET substrate releases the quenched fluorescent Mca (7-methoxycoumarin-4-yl)-acetyl group (Abcam, 2018). The kit employs a quenched fluorogenic substrate Mca-Pro-Leu-Gly-Leu-Dpa-Ala-Arg-NH2, where the Mca fluorescence is quenched by Dpa until cleavage by MMPs. The amount of fluorescent product yielded by MMP-9 can be detected fluorometrically and it is proportional to the enzyme activity. Fluorescence were measured at ex320 nm-em395 nm to minimise fluorescence interference from 3,6,7-trimethyllumazine at ex330 nm-em470 nm. […]

[1] = Simulated gastrointestinal digestion (SGF then SIF), HPLC retention of 3,6,7-trimethyllumazine; format: in vitro ADME; conditions: for remaining amount of 3,6,7-trimethyllumazine: pure compound
Method: The simulated gastrointestinal digestion was carried out using a static model. The simulated gastric fluid (SGF) and the simulated intestinal fluid (SIF) were prepared in accordance with a global consensus protocol (Minekus et al 2014). The SGF has a pH 3 to mimic the fed-state of the stomach. When mixed with Manuka honey (or a honey solution), the final mixture contains 2000 U/mL of pepsin. The SIF has pH 7 to mimic the fed-state of the small intestine, containing 2 mg/mL of pancreatin (8×USP, or based on a protease activity of 200 U/mL) and 20 mM of porcine bile extract before use.
In the simulated gastric digestion, 2 g of Manuka honey was incubated in 2 mL of SGF at 37° C. under 95 rpm shaking for a period of 2 h (triplicates). At selected time points (0, 30, 60 and 120 min), a predetermined volume (0.1 mL) of the mixture was withdrawn for 3,6,7-trimethyllumazine analysis. The solution for analysis was kept on ice with an addition of 0.1 mL SIF (pH 7) to stop pepsin activity. As a control group, a pure 3,6,7-trimethyllumazine solution was treated in the same way for comparative purposes.
Following the 2 h gastric digestion, the resulting solution was mixed with SIF (pH 7) at a volume ratio of 1:1, to have a final mixture that contains 1 mg/mL of pancreatin and 10 mM of porcine bile extract. This mixture was incubated at 37° C. under 95 rpm shaking for 4 h (triplicates). At selected time points (0, 60, 120 and 240 min), a predetermined volume (0.1 mL) of the mixture was withdrawn for 3,6,7-trimethyllumazine concentration analysis. The pancreatin activity in the withdrawn solution was quenched by adding 5 mmol/L Pefabloc® (Egger et al 2019).
The gastric and intestinal digesta for 3,6,7-trimethyllumazine analysis was treated to remove insoluble fractions (e.g. pancreatin) before HPLC analysis. In brief, all samples were diluted with 0.1% formic acid and then centrifuged at 14,000 rpm for 10 min. Supernatant was taken for analysis. The amount of 3,6,7-trimethyllumazine at different time points was analysed using a reverse-phase HPLC system, which has been previously used to analyse 3,6,7-trimethyllumazine and leptosperin as reported in the literature (Bin Lin et al 2017). In brief, the samples were diluted 5 times in 0.1% v/v formic acid. A Hypersil GOLD column (150×2.1 mm, […]) was used as the stationary phase (25° C.), and the mobile phase will consist of 0.1% formic acid (phase A), and 80:20 acetonitrile: 0.1% formic acid (phase B). […] The signal of 3,6,7-trimethyllumazine was detected at 320 nm.

T1 sequence (P14780 94-707): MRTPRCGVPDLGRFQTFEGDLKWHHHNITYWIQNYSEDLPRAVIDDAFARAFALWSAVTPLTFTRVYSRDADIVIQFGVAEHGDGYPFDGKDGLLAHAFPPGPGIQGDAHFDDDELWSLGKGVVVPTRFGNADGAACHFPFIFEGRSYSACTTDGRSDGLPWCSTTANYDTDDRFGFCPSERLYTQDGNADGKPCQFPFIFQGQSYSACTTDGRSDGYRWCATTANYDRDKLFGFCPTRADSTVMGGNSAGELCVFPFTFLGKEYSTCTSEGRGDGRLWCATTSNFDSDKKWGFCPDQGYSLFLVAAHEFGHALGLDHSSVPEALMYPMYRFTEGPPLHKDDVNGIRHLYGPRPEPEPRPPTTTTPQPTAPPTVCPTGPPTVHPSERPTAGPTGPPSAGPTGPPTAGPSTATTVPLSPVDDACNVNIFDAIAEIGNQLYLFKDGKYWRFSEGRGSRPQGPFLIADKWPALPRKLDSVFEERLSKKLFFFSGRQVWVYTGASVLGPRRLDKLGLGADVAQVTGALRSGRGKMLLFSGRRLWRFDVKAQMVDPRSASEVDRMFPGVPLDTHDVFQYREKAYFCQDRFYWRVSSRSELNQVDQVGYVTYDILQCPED

## Cc1nc2[nH]c(=O)n(C)c(=O)c2nc1C [3,6,7-trimethyllumazine]
Recombinant MMP-9 enzyme
  inhibition of MMP-9 activity: almost completely inhibited
[1]; 50% (w/w) Manuka honey solutions or pure compound directly exposed to digestive media
  degradation during gastrointestinal digestion: No significant degradation
[1]; from four Manuka honey samples, end of 2 h gastric plus 4 h intestinal digestion
  initial amount recovered in the digesta: ~100%
[1]; SGF, 0 h, mean ± SD, n=3
  remaining amount of 3,6,7-trimethyllumazine: 682 ± 90 ng/mL
[1]; SGF, 0.5 h
  remaining amount of 3,6,7-trimethyllumazine: 703 ± 57 ng/mL
[1]; SGF, 1 h
  remaining amount of 3,6,7-trimethyllumazine: 728 ± 28 ng/mL
[1]; SGF, 2 h
  remaining amount of 3,6,7-trimethyllumazine: 688 ± 72 ng/mL
[1]; SIF, 0 h
  remaining amount of 3,6,7-trimethyllumazine: 736 ± 6 ng/mL
[1]; SIF, 1 h
  remaining amount of 3,6,7-trimethyllumazine: 740 ± 12 ng/mL
[1]; SIF, 2 h
  remaining amount of 3,6,7-trimethyllumazine: 732 ± 10 ng/mL
[1]; SIF, 4 h
  remaining amount of 3,6,7-trimethyllumazine: 730 ± 3 ng/mL
